Measured values published in patent US7138361B2, “Herbicidal heterocycles” (E. I. du Pont de Nemours and Company, priority 2000, dated 2006).

Experiments:
Format in all cases: in vivo
[1] = system: smallflower flatsedge (Cyperus difformis); test: Test B flooded paddy test; details: Rate 1000 g/ha, scale of 0 to 100 where 0 is no effect and 100 is complete control, visually evaluated after 13 to 15 days
In short: (§1)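 Treatment: formulated chemical applied to flooded paddy plants at 2-leaf stage. Hold: greenhouse, 13–15 days. Scoring: visual comparison to controls, 0 (no effect) to 100 (complete control).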

[2] = system: duck salad (Heteranthera limosa); test: Test B flooded paddy test; details: Rate 1000 g/ha, scale of 0 to 100 where 0 is no effect and 100 is complete control, visually evaluated after 13 to 15 days
In short: as §1

rice (Oryza saliva) [3] = test: Test B flooded paddy test; details: Rate 1000 g/ha, scale of 0 to 100 where 0 is no effect and 100 is complete control, visually evaluated after 13 to 15 days
In short: as §1

[4] = system: barnyardgrass (Echinochloa crus-galli); test: Test B flooded paddy test; details: Rate 1000 g/ha, scale of 0 to 100 where 0 is no effect and 100 is complete control, visually evaluated after 13 to 15 days
In short: as §1

[5] = system: morning glory (Ipomoea hederacea); test: Test B preemergence
In short: (§2)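 Ratings on a 0 to 100 visual scale (100 complete control) compare treated plants with controls 13 to 15 days after application. Treatments were pre- or postemergence sprays of compound in non-phytotoxic solvent with surfactant.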

[6] = system: velvetleaf (Abutilon theophrasti); test: Test B preemergence
In short: as §2

[7] = system: Surinam grass (Brachiaria decumbens); test: Test B preemergence
In short: as §2

corn (Zea mays) [8] = test: Test B preemergence
In short: as §2

[9] = system: lambsquarters (Chenopodium album); test: Test B preemergence
In short: as §2

rice (Oryza saliva) [10] = test: Test B preemergence
In short: as §2

[11] = system: crabgrass (Digitaria sanguinalis); test: Test B preemergence
In short: as §2

[12] = system: barnyardgrass (Echinochloa crus-galli); test: Test B preemergence
In short: as §2

[13] = system: giant foxtail (Setaria faberii); test: Test B preemergence
In short: as §2

[14] = system: cocklebur (Xanthium strumarium); test: Test B preemergence
In short: as §2

[15] = system: pigweed (Amaranthus retroflexus); test: Test B preemergence
In short: as §2

wild oat (Avena fatua) = test: Test B postemergence; details: 13 to 15 days
In short: as §2

[16] = system: morning glory (Ipomoea hederacea); test: Test B postemergence; details: 13 to 15 days
In short: as §2

[17] = system: velvetleaf (Abutilon theophrasti); test: Test B postemergence; details: 13 to 15 days
In short: as §2

[18] = system: Surinam grass (Brachiaria decumbens); test: Test B postemergence; details: 13 to 15 days
In short: as §2

[19] = system: wheat (Triticum aestivum); test: Test B postemergence; details: 13 to 15 days
In short: as §2

corn (Zea mays) [20] = test: Test B postemergence; details: 13 to 15 days
In short: as §2

[21] = system: lambsquarters (Chenopodium album); test: Test B postemergence; details: 13 to 15 days
In short: as §2

[22] = system: blackgrass (Alopecurus myosuroides); test: Test B postemergence; details: 13 to 15 days
In short: as §2

[23] = system: crabgrass (Digitaria sanguinalis); test: Test B postemergence; details: 13 to 15 days
In short: as §2

[24] = system: barnyardgrass (Echinochloa crus-galli); test: Test B postemergence; details: 13 to 15 days
In short: as §2

[25] = system: giant foxtail (Setaria faberii); test: Test B postemergence; details: 13 to 15 days
In short: as §2

[26] = system: cocklebur (Xanthium strumarium); test: Test B postemergence; details: 13 to 15 days
In short: as §2

[27] = system: pigweed (Amaranthus retroflexus); test: Test B postemergence; details: 13 to 15 days
In short: as §2

[28] = system: smallflower flatsedge (Cyperus difformis); test: Test C flooded paddy test; details: for Flatsedge plant response rating: Flooded Paddy, scale 0 to 100, 0 no effect, 100 complete control; for Plant response rating, Flatsedge: flooded paddy test, scale 0 to 100 (0 no effect, 100 complete control)
In short: (§3)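 Response on a 0-to-100 scale (no effect to complete control) was assessed by eye versus controls. Plants had reached 2 leaves when treated in flooded paddy conditions. The assessment took place after 12–14 days of greenhouse growth.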

[29] = system: duck salad (Heteranthera limosa); test: Test C flooded paddy test; details: for Ducksalad plant response rating: Flooded Paddy, scale 0 to 100, 0 no effect, 100 complete control; for Plant response rating, Ducksalad: flooded paddy test, scale 0 to 100 (0 no effect, 100 complete control)
In short: as §3

rice (Oryza saliva) [30] = test: Test C flooded paddy test; details: for Rice plant response rating: Flooded Paddy, scale 0 to 100, 0 no effect, 100 complete control; for Plant response rating, Rice: flooded paddy test, scale 0 to 100 (0 no effect, 100 complete control)
In short: as §3

[31] = system: barnyardgrass (Echinochloa crus-galli); test: Test C flooded paddy test; details: for Barnyardgrass plant response rating: Flooded Paddy, scale 0 to 100, 0 no effect, 100 complete control; for Plant response rating, Barnyardgrass: flooded paddy test, scale 0 to 100 (0 no effect, 100 complete control)
In short: as §3

[32] = Preemergence, Rate 500 g/ha, scale 0 to 100, 0 no effect, 100 complete control
[33] = preemergence, Rate 125 g/ha, scale of 0 to 100 where 0 is no effect and 100 is complete control, 13 to 15 days
[34] = Rate 125 g/ha, scale 0 (no effect) to 100 (complete control)
[35] = Rate 500 g/ha, scale 0 to 100, 0 is no effect, 100 is complete control
[36] = preemergence, Rate 125 g/ha, scale 0 to 100, 0 no effect, 100 complete control

CC(C)(C)c1ccn(C2CCN(c3cc(C(F)(F)F)cc(C(F)(F)F)c3)C2=O)n1 (stereo not shown) [Compound 54]
0: Plant response rating, Rice (rice (Oryza saliva) [3]) | Plant response rating, Morningglory [5, 32] | Plant response rating, Morningglory [5, 33] | Plant response rating, Velvetleaf [6, 32] | Plant response rating, Velvetleaf [6, 33] | Plant response rating, Surinam grass [7, 32] | Plant response rating, Surinam grass [7, 33] | Plant response rating, Corn (corn (Zea mays) [8]; [32]) | Plant response rating, Corn (corn (Zea mays) [8]; [33]) | Plant response rating, Lambsquarters [9, 32] | Plant response rating, Lambsquarters [9, 33] | Plant response rating, Rice (rice (Oryza saliva) [10]; [32]) | Plant response rating, Rice (rice (Oryza saliva) [10]; [33]) | Plant response rating, Crabgrass [11, 32] | Plant response rating, Crabgrass [11, 33] | Plant response rating, Barnyardgrass [12, 32] | Plant response rating, Barnyardgrass [12, 33] | Plant response rating, Foxtail, Giant [13, 32] | Plant response rating, Foxtail, Giant [13, 33] | Plant response rating, Cocklebur [14, 32] | Plant response rating, Cocklebur [14, 33] | Plant response rating, Pigweed [15, 32] | Plant response rating, Pigweed [15, 33] | Plant response rating, Wild Oat (wild oat (Avena fatua); [34]) | Plant response rating, Wild Oat (wild oat (Avena fatua); [35]) | Plant response rating, Morningglory [16, 34] | Plant response rating, Velvetleaf [17, 34] | Plant response rating, Velvetleaf [17, 35] | Plant response rating, Surinam grass [18, 34] | Plant response rating, Surinam grass [18, 35] | Plant response rating, Wheat [19, 34] | Plant response rating, Wheat [19, 35] | Plant response rating, Corn (corn (Zea mays) [20]; [34]) | Plant response rating, Corn (corn (Zea mays) [20]; [35]) | Plant response rating, Lambsquarters [21, 34] | Plant response rating, Blackgrass [22, 34] | Plant response rating, Blackgrass [22, 35] | Plant response rating, Crabgrass [23, 34] | Plant response rating, Crabgrass [23, 35] | Plant response rating, Barnyardgrass [24, 34] | Plant response rating, Barnyardgrass [24, 35] | Plant response rating, Foxtail, Giant [25, 34] | Plant response rating, Foxtail, Giant [25, 35] | Plant response rating, Cocklebur [26, 34] | Plant response rating, Pigweed [27, 34] | Plant response rating, Pigweed [27, 35] | Flatsedge plant response rating ([28]; Rate 250 g/ha) | Plant response rating, Flatsedge ([28]; Rate 62 g/ha) | Plant response rating, Flatsedge ([28]; Rate 125 g/ha) | Ducksalad plant response rating ([29]; Rate 250 g/ha) | Ducksalad plant response rating ([29]; Rate 500 g/ha) | Plant response rating, Ducksalad ([29]; Rate 62 g/ha) | Plant response rating, Ducksalad ([29]; Rate 125 g/ha) | Rice plant response rating (rice (Oryza saliva) [30]; Rate 250 g/ha) | Rice plant response rating (rice (Oryza saliva) [30]; Rate 500 g/ha) | Plant response rating, Rice (rice (Oryza saliva) [30]; Rate 62 g/ha) | Plant response rating, Rice (rice (Oryza saliva) [30]; Rate 125 g/ha) | Plant response rating, Barnyardgrass ([31]; Rate 62 g/ha) | Plant response rating, Barnyardgrass ([31]; Rate 125 g/ha)
80: Plant response rating, Barnyardgrass [4] | Flatsedge plant response rating ([28]; Rate 500 g/ha)
20: Plant response rating, Morningglory [16, 35] | Plant response rating, Cocklebur [26, 35] | Barnyardgrass plant response rating ([31]; Rate 250 g/ha) | Barnyardgrass plant response rating ([31]; Rate 500 g/ha)
30: Plant response rating, Ducksalad [2] | Plant response rating, Lambsquarters [21, 35]
90: Plant response rating, Flatsedge [1]

CC(C)c1ccn(C2SCN(c3cccc(C(F)(F)F)c3)C2=O)n1 (stereo not shown) [Compound 23]
70: Plant response rating, Crabgrass [11, 36] | Plant response rating, Pigweed [27, 34] | Rice plant response rating (rice (Oryza saliva) [30]; Rate 250 g/ha)
60: Plant response rating, Morningglory [5, 32]
0: Plant response rating, Flatsedge [1] | Plant response rating, Rice (rice (Oryza saliva) [3]) | Plant response rating, Barnyardgrass [4] | Plant response rating, Morningglory [5, 36] | Plant response rating, Velvetleaf [6, 32] | Plant response rating, Velvetleaf [6, 36] | Plant response rating, Surinam grass [7, 36] | Plant response rating, Corn (corn (Zea mays) [8]; [32]) | Plant response rating, Corn (corn (Zea mays) [8]; [36]) | Plant response rating, Rice (rice (Oryza saliva) [10]; [36]) | Plant response rating, Barnyardgrass [12, 36] | Plant response rating, Cocklebur [14, 36] | Plant response rating, Wild Oat (wild oat (Avena fatua); [34]) | Plant response rating, Wild Oat (wild oat (Avena fatua); [35]) | Plant response rating, Wheat [19, 34] | Plant response rating, Wheat [19, 35] | Plant response rating, Blackgrass [22, 34]
20: Plant response rating, Surinam grass [7, 32] | Plant response rating, Cocklebur [14, 32] | Plant response rating, Morningglory [16, 34] | Plant response rating, Velvetleaf [17, 34] | Plant response rating, Surinam grass [18, 34] | Plant response rating, Surinam grass [18, 35] | Plant response rating, Corn (corn (Zea mays) [20]; [34]) | Plant response rating, Blackgrass [22, 35] | Plant response rating, Crabgrass [23, 34] | Plant response rating, Barnyardgrass [24, 34] | Plant response rating, Foxtail, Giant [25, 34] | Plant response rating, Rice (rice (Oryza saliva) [30]; Rate 62 g/ha) | Plant response rating, Rice (rice (Oryza saliva) [30]; Rate 125 g/ha)
90: Plant response rating, Barnyardgrass [24, 35]
30: Plant response rating, Rice (rice (Oryza saliva) [10]; [32]) | Plant response rating, Velvetleaf [17, 35]
80: Plant response rating, Morningglory [16, 35] | Plant response rating, Lambsquarters [21, 34] | Plant response rating, Foxtail, Giant [25, 35] | Plant response rating, Cocklebur [26, 35] | Plant response rating, Ducksalad ([29]; Rate 125 g/ha) | Plant response rating, Barnyardgrass ([31]; Rate 62 g/ha) | Plant response rating, Barnyardgrass ([31]; Rate 125 g/ha)
50: Plant response rating, Foxtail, Giant [13, 32] | Plant response rating, Foxtail, Giant [13, 36] | Plant response rating, Corn (corn (Zea mays) [20]; [35]) | Plant response rating, Ducksalad ([29]; Rate 62 g/ha)
40: Plant response rating, Crabgrass [23, 35] | Plant response rating, Cocklebur [26, 34]
100: Plant response rating, Ducksalad [2] | Plant response rating, Lambsquarters [9, 32] | Plant response rating, Lambsquarters [9, 36] | Plant response rating, Crabgrass [11, 32] | Plant response rating, Barnyardgrass [12, 32] | Plant response rating, Pigweed [15, 32] | Plant response rating, Pigweed [15, 36] | Plant response rating, Lambsquarters [21, 35] | Plant response rating, Pigweed [27, 35] | Flatsedge plant response rating ([28]; Rate 250 g/ha) | Flatsedge plant response rating ([28]; Rate 500 g/ha) | Plant response rating, Flatsedge ([28]; Rate 62 g/ha) | Plant response rating, Flatsedge ([28]; Rate 125 g/ha) | Ducksalad plant response rating ([29]; Rate 250 g/ha) | Ducksalad plant response rating ([29]; Rate 500 g/ha) | Rice plant response rating (rice (Oryza saliva) [30]; Rate 500 g/ha) | Barnyardgrass plant response rating ([31]; Rate 250 g/ha) | Barnyardgrass plant response rating ([31]; Rate 500 g/ha)
